Legend:
Huh7 = test: SRB cytotoxicity assay; type: cell-based, human; details: 72 h treatment
Experimental: (§1) HepG2, FOCUS, Hep3B, Mahlavu, Huh7, Hep40, and PLC-PRF-5 hepatocellular carcinoma cells; MCF-7, MDA-MB-231, MDA-MB-468, SKBR3, and ZR-75 breast cancer cells; and normal-like epithelial MCF-10A breast cells were cultured in low-glucose Dulbecco’s modified Eagle’s medium (DMEM) (Biological Industries-BI) supplemented with 10% fetal bovine serum (FBS) (Gibco/Thermo Fisher Scientific), 2 mM L-Glutamine (Gibco/Thermo Fisher Scientific), 100 Units/mL Penicillin/Streptomycin, and 0.1 mM non-essential amino acid (Gibco/Thermo Fisher Scientific). SNU475 hepatocellular carcinoma cells were maintained in RPMI (Biological Industries-BI) supplemented with 10% fetal bovine serum (FBS) (Gibco/Thermo Fisher Scientific), L-Glutamine (Gibco/Thermo Fisher Scientific), and 100 Units/mL Penicillin/Streptomycin, while ZR-75 breast cancer cells were cultured RPMI (Biological Industries-BI) supplemented with 10% fetal bovine serum (FBS) (Gibco/Thermo Fisher Scientific), 1× sodium pyruvate, and %4.5 glucose. Normal-like MCF-10A breast cells were sustained in DMEM/HAM’S F12 (Hyclone) supplemented with 10% fetal bovine serum (FBS) (Gibco/Thermo Fisher Scientific), EGF (20 ng/mL), Hydrocortisone ([…]), cholera toxin (100 ng/mL), insulin (10 μg/mL), and 100 Units/mL Penicillin/Streptomycin. The cells were cultivated at 37 °C in a humidified incubator under 5% CO2.
(§2) Mahlavu, FOCUS, SNU475 (1000 cell/well in 150 μL/well); Huh7, MCF7 (2500 cell/well in 150 μL/well); HepG2, Hep3B, SKBR3 (3000 cell/well in 150 μL/well); PLC-PRF-5, Hep40 (5000 cell/well in 150 μL/well); MDA-MB-231, MDA-MB-468, MCF10A (6000 cell/well in 150 μL/well); and ZR-75 (7500 cell/well in 150 μL/well) were cultured in 96-well plates and were inoculated in an incubator for 24 hours. The compounds were dissolved in dimethyl sulfoxide (DMSO) (Sigma, St Louis, MO) as a 20 mM stock solution. The treatment of cells with the compounds was done in a concentration range starting from 40 to 2.5 μM. The compounds which were below 2.5 μM were tested in a concentration range from 2.5 to 0.15 μM. End of the 72h compound treatment, the cells were fixed using 10% (v/v) trichloroacetic acid (MERCK) for an hour and washed with ddH2O, and left for air-drying. The fixed plates were stained with 50 μL of sulforhodamine B (SRB) solution (Sigma) at RT for 10 min. To remove unbound SRB dye, acetic acid was used to wash cells three times and left for drying. The protein-bound SRB was solubilized with 10 mM Tris-base (Sigma) and their absorbance was measured with a 96-well plate reader at 515 nm wavelength (ELx800, Biotek). The IC50 values of compounds were calculated in comparison with control group DMSO. Data with R^2 values larger than 0.9 are considered significant.

MCF7 = test: SRB cytotoxicity assay; type: cell-based, human; details: 72 h treatment
Experimental: as §1, §2

Molecule	IC50 (Huh7)	IC50 (MCF7)	melting point	IC50 (Huh7; Homo sapiens, Huh-7, 72 h)	IC50 (MCF7; Homo sapiens, MCF7, 72 h)
5-Methyl-4-(2,4-difluoromethylphenyl)-3-(4-((2-methylbenzyl)oxy)phenyl)isoxazole [compound 52]	15 µM	> 20 µM	–	–	–
5-Methyl-4-(3-fluoromethylphenyl)-3-(4-((2-methylbenzyl)oxy)phenyl)isoxazole [compound 50]	15 µM	> 20 µM	–	–	–
COc1ccccc1COc1ccc(-c2noc(C)c2-c2ccc(Cl)cc2)cc1 [compound 12, 4-(4-Chlorophenyl)-3-(4-((2-methoxybenzyl)oxy)phenyl)-5-methylisoxazole]	–	–	156.8 to 157.7 °C	> 20 µM	> 20 µM
Cc1onc(-c2ccc(OCc3ccccc3OC(F)(F)F)cc2)c1-c1ccc(Cl)cc1 [compound 13, 4-(4-Chlorophenyl)-5-methyl-3-(4-((2-(trifluoromethoxy)benzyl)oxy)phenyl)isoxazole]	–	–	85.8 to 86.7 °C	16.3 µM	> 20 µM
Cc1onc(-c2ccc(OCc3ccccc3OC(F)F)cc2)c1-c1ccc(Cl)cc1 [compound 14, 4-(4-Chlorophenyl)-3-(4-((2-(difluoromethoxy)benzyl)oxy)phenyl)-5-methylisoxazole]	–	–	95.5 to 96.9 °C	13.8 µM	8.5 µM
Cc1onc(-c2ccc(OCc3ccccc3F)cc2)c1-c1ccc(Cl)cc1 [compound 15, 4-(4-Chlorophenyl)-3-(4-((2-fluorobenzyl)oxy)phenyl)-5-methylisoxazole]	–	–	119.5 to 120.9 °C	> 20 µM	> 20 µM
Cc1onc(-c2ccc(OCc3ccccc3Cl)cc2)c1-c1ccc(Cl)cc1 [compound 16, 4-(4-Chlorophenyl)-3-(4-((2-chlorobenzyl)oxy)phenyl)-5-methylisoxazole]	–	–	105.2 to 106.4 °C	20 µM	> 20 µM
Cc1onc(-c2ccc(OCc3ccccc3C#N)cc2)c1-c1ccc(Cl)cc1 [compound 17, 2-((4-(4-(4-Chlorophenyl)-5-methylisoxazol-3-yl)phenoxy)methyl)benzonitrile]	–	–	111.2 to 112.5 °C	> 20 µM	> 20 µM
Cc1onc(-c2ccc(OCc3ccccc3C(F)(F)F)cc2)c1-c1ccc(Cl)cc1 [compound 18, 4-(4-Chlorophenyl)-5-methyl-3-(4-((2-(trifluoromethyl)benzyl)oxy)phenyl)isoxazole]	–	–	132.8 to 134.4 °C	14.2 µM	> 20 µM
COc1cccc(COc2ccc(-c3noc(C)c3-c3ccc(Cl)cc3)cc2)c1 [compound 20, 4-(4-Chlorophenyl)-3-(4-((3-methoxybenzyl)oxy)phenyl)-5-methylisoxazole]	–	–	105.1 to 106.8 °C	3.6 µM	12 µM
Cc1onc(-c2ccc(OCc3cccc(F)c3)cc2)c1-c1ccc(Cl)cc1 [compound 21, 4-(4-Chlorophenyl)-3-(4-((3-fluorobenzyl)oxy)phenyl)-5-methylisoxazole]	–	–	98.1 to 99.8 °C	> 20 µM	> 20 µM
Cc1onc(-c2ccc(OCc3cccc(C#N)c3)cc2)c1-c1ccc(Cl)cc1 [compound 22, 3-((4-(4-(4-Chlorophenyl)-5-methylisoxazol-3-yl)phenoxy)methyl)benzonitrile]	–	–	114.4 to 115.6 °C	20.7 µM	> 20 µM
COC(=O)c1cccc(COc2ccc(-c3noc(C)c3-c3ccc(Cl)cc3)cc2)c1 [compound 23, Methyl-3-((4-(4-(4-chlorophenyl)-5-methylisoxazol-3-yl)phenoxy)methyl)benzoate]	–	–	121.5 to 122.8 °C	> 20 µM	13 µM
COc1ccc(COc2ccc(-c3noc(C)c3-c3ccc(Cl)cc3)cc2)cc1 [compound 25, 4-(4-Chlorophenyl)-3-(4-((4-methoxybenzyl)oxy)phenyl)-5-methylisoxazole]	–	–	126.1 to 127.4 °C	> 20 µM	> 20 µM
Cc1onc(-c2ccc(OCc3ccc(F)cc3)cc2)c1-c1ccc(Cl)cc1 [compound 26, 4-(4-Chlorophenyl)-3-(4-((4-fluorobenzyl)oxy)phenyl)-5-methylisoxazole]	–	–	99.3 to 100.7 °C	19 µM	13 µM
Cc1onc(-c2ccc(OCc3ccc(C#N)cc3)cc2)c1-c1ccc(Cl)cc1 [compound 27, 4-((4-(4-(4-Chlorophenyl)-5-methylisoxazol-3-yl)phenoxy)methyl)benzonitrile]	–	–	138.5 to 139.5 °C	11.7 µM	> 20 µM
COC(=O)c1ccc(COc2ccc(-c3noc(C)c3-c3ccc(Cl)cc3)cc2)cc1 [compound 28, Methyl-4-((4-(4-(4-chlorophenyl)-5-methylisoxazol-3-yl)phenoxy)methyl)benzoate]	–	–	110.7 to 111.9 °C	12.7 µM	> 20 µM
Cc1onc(-c2ccc(OCc3ccc(C(=O)O)cc3)cc2)c1-c1ccc(Cl)cc1 [compound 29, 4-((4-(4-(4-Chlorophenyl)-5-methylisoxazol-3-yl)phenoxy)methyl)benzoic acid]	–	–	210.8 to 212.4 °C	8.6 µM	15 µM
Cc1cccc(COc2ccc(-c3noc(C)c3-c3ccc(Cl)cc3)cc2)c1C [compound 30, 4-(4-Chlorophenyl)-3-(4-((2,3-dimethylbenzyl)oxy)phenyl)-5-methylisoxazole]	–	–	167.2 to 168.5 °C	15.3 µM	> 20 µM
Cc1ccc(COc2ccc(-c3noc(C)c3-c3ccc(Cl)cc3)cc2)c(C)c1 [compound 31, 4-(4-Chlorophenyl)-3-(4-((2,4-dimethylbenzyl)oxy)phenyl)-5-methylisoxazole]	–	–	119.7 to 122.1 °C	10.8 µM	> 20 µM
Cc1onc(-c2ccc(OCc3cccnc3)cc2)c1-c1ccc(Cl)cc1 [compound 32, 4-(4-Chlorophenyl)-5-methyl-3-(4-(pyridin-3-ylmethoxy)phenyl)isoxazole]	–	–	115.5 to 116.4 °C	7.7 µM	8.3 µM
Cc1onc(-c2ccc(OCc3ccncc3)cc2)c1-c1ccc(Cl)cc1 [compound 33, 4-(4-Chlorophenyl)-5-methyl-3-(4-(pyridin-4-ylmethoxy)phenyl)isoxazole]	–	–	124.2 to 125.8 °C	11.4 µM	14.5 µM
Cc1onc(-c2ccc(OCc3ccc4ccccc4n3)cc2)c1-c1ccc(Cl)cc1 [compound 34, 4-(4-Chlorophenyl)-5-methyl-3-(4-(quinolin-2-ylmethoxy)phenyl)isoxazole]	–	–	164.7 to 165.8 °C	9.1 µM	> 20 µM
Cc1ncccc1COc1ccc(-c2noc(C)c2-c2ccc(Cl)cc2)cc1 [compound 35, 4-(4-Chlorophenyl)-5-methyl-3-(4-((2-methylpyridin-3-yl)methoxy)phenyl)isoxazole]	–	–	107.2 to 108.8 °C	3.9 µM	6.1 µM
Cc1cccnc1COc1ccc(-c2noc(C)c2-c2ccc(Cl)cc2)cc1 [compound 36, 4-(4-Chlorophenyl)-5-methyl-3-(4-((3-methylpyridin-2-yl)methoxy)phenyl)isoxazole]	–	> 20 µM	138.7 to 141.2 °C	9.4 µM	≥ 20 µM
Cc1cccc(COc2ccc(-c3noc(C)c3-c3ccc(Cl)cc3)cc2)n1 [compound 37, 4-(4-Chlorophenyl)-5-methyl-3-(4-((6-methylpyridin-2-yl)methoxy)phenyl)isoxazole]	–	–	126.1 to 127.5 °C	6.9 µM	12.9 µM
Cc1onc(-c2ccc(OCc3ccc(Cl)nc3)cc2)c1-c1ccc(Cl)cc1 [compound 38, 4-(4-Chlorophenyl)-3-(4-((6-chloropyridin-3-yl)methoxy)phenyl)-5-methylisoxazole]	–	–	168.2 to 170.8 °C	> 20 µM	> 20 µM
